Like-named read-outs stand apart in the source and are kept apart here.
Test system: H3677 melanoma cell line
Test: cells
Type: cell-based
[1] = read-out: IC50 (μM) with L49-βL

Compound: N[C@@H](Cc1ccc(N(CCCl)CCCl)cc1)C(=O)O [melphalan, 4[bis(2 chloroethyl)amino]-L-phynelalanine, reference compound]
- IC50 (Homo sapiens, H3677): 2.8 µM

Compound: C-Mel Cyclobutyl Ester
- IC50 (read-out: IC50 (μM) with βL): 0.8 µM
- IC50 (read-out: IC50 (μM) without βL): 10 µM

Compound: C-Mel Cyclohexyl Ester
- IC50 [1]: 0.23 µM
- IC50 (read-out: IC50 (μM) with βL): 0.083 µM
- IC50 (read-out: IC50 (μM) without βL): 1.6 µM

Compound: C-Mel Methyl Ester
- IC50 (read-out: IC50 (μM) with βL): 0.0018 µM
- IC50 (read-out: IC50 (μM) without βL): 0.65 µM

Compound: C-Mel t-Butyl Ester
- IC50 (read-out: IC50 (μM) with βL): 2.1 µM
- IC50 (read-out: IC50 (μM) without βL): 32.3 µM

Compound: Glutaryl C-Mel
- IC50 [1]: 2.4 µM
- IC50 (read-out: IC50 (μM) with βL): 1.4 µM
- IC50 (read-out: IC50 (μM) without βL): 26.3 µM

Compound: Glutaryl C-Mel Cyclohexyl Ester
- IC50 [1]: 0.14 µM
- IC50 (read-out: IC50 (μM) with βL): 0.087 µM
- IC50 (read-out: IC50 (μM) without βL): 1.86 µM

Compound: Glutaryl C-Mel-D-Phe-NH2
- IC50 (read-out: IC50 (μM) with βL): 2.1 µM
- IC50 (read-out: IC50 (μM) without βL): 30 µM

Compound: Glutaryl C-Mel-L-Phe-NH2
- IC50 (read-out: IC50 (μM) with βL): 0.05 µM
- IC50 (read-out: IC50 (μM) without βL): 3.6 µM

Compound: Mel-D-Glu(OMe)2 [Mel-D-Glu bis methyl ester]
- IC50 (read-out: IC50): 3.95 µM

Compound: Mel-Gly-nitrophenyl amide
- IC50 (read-out: IC50): 1.01 µM

Compound: Mel-L-Glu(OMe)2 [Mel-L-Glu bis methyl ester]
- IC50 (read-out: IC50): 1.89 µM

Compound: Mel-L-Met amide
- IC50 (read-out: IC50): 0.4 µM

Compound: Mel-L-Phe cyclohexyl amide
- IC50 (read-out: IC50): 0.015 µM

Compound: Mel-L-homoPhe-NH2
- IC50 (read-out: IC50): 0.09 µM

Compound: Mel-cyclohexyl amide
- IC50 (read-out: IC50): 1.57 µM

Compound: Mel-phenethyl amide
- IC50 (read-out: IC50): 0.97 µM

Compound: Mel-propargylalanine-NH2
- IC50 (read-out: IC50): 0.31 µM

Compound: Melphalan (2-trifluoromethyl)phenethyl ester
- IC50 (read-out: IC50): 3 µM

Compound: Melphalan (4-cis-t-butyl) cyclohexyl ester [melphalan cis-4-t-butylcyclohexyl ester]
- IC50 (read-out: IC50): 13 µM

Compound: Melphalan (4-n-propyl)phenethyl ester [melphalan (4-butyl)phenethyl ester]
- IC50 (read-out: IC50): 4.6 µM

Compound: Melphalan (4-trans-t-butyl) cyclohexyl ester
- IC50 (read-out: IC50): 3.6 µM

Compound: Melphalan Cyclobutyl Ester
- IC50 (read-out: IC50): 0.2 µM

Compound: Melphalan Cyclohexyl Ester
- IC50 (read-out: IC50): 0.074 µM

Compound: Melphalan Cyclooctyl Ester
- IC50 (read-out: IC50): 5 µM

Compound: Melphalan Methyl Ester
- IC50 (read-out: IC50): 0.054 µM

Compound: Melphalan Phenethyl Ester
- IC50 (read-out: IC50): 0.17 µM

Compound: Melphalan t-Butyl Ester
- IC50 (read-out: IC50): 3.34 µM

Compound: glutaryl C-Mel t-butyl ester
- IC50 (read-out: IC50 (μM) with βL): 2.3 µM
- IC50 (read-out: IC50 (μM) without βL): 25 µM

Compound: melphalan amide
- IC50 (read-out: IC50): 0.64 µM

Compound: melphalan anilide
- IC50 (read-out: IC50): 1.2 µM

Reference: patent publication US20050214310A1 (priority 2004, published 2005)
